Laboratory results: ChEMBL document CHEMBL5137105, “Tricyclic Carboxamide Derivatives as PRMT5 Inhibitors for Treating Cancer” (ACS Med Chem Lett, 2022)

Assay: Antiproliferative activity against human HCT116-MTAP null cells assessed as reduction in cell viability incubated for 6 days by CellTiter-Glo luminescent assay
Assay type: functional, cell-based
Conditions: 144 h

SMILES	IC50 [nM]
C[C@H](c1ncccn1)N(Cc1ccc(C(F)(F)F)cn1)C(=O)c1ccc2nc(N)c3c(c2c1)CCC3	6
CC1OCc2c1c(N)nc1ccc(C(=O)N(Cc3ccc(C(F)(F)F)cn3)Cc3ccnc4[nH]ccc34)cc21 (stereo unspecified)	6
Cn1cc(N(Cc2ccc(C(F)(F)F)cn2)C(=O)c2cc3c4c(c(N)nc3cc2Cl)COC4)cn1	6
Cn1cc(N(Cc2ccc(C(F)(F)F)cn2)C(=O)c2cc3c(cc2F)nc(N)c2cnn(C)c23)cn1	5
C[C@H](c1ncccn1)N(Cc1ccc(C#N)c(Cl)n1)C(=O)c1ccc2nc(N)c3c(c2c1)COC3	5
Cn1ncc2c(N)nc3cc(F)c(C(=O)N(Cc4ccc(C(F)(F)F)cn4)C4CCC4)cc3c21	5
